Data from patent US20240116985A1, “STAPLED PEPTIDES AND METHODS THEREOF” (priority 2020, published 2024).
Where two headings read alike, the source gives them in different places.

Assays:
[1] = molecular target: T1, full-length beta-Catenin (Uniprot ID P35222) (Homo sapiens, UniProt P35222); experiment: Fluorescence polarization IC50 (beta-catenin / 5FAM-TCF4 10-53 competition); assay type: binding; details: fluorescence polarization; read-out: beta-Catenin FP IC50
T1 construct: 10 nM full-length beta-Catenin (Uniprot ID P35222)
T1 sequence (P35222 1-781): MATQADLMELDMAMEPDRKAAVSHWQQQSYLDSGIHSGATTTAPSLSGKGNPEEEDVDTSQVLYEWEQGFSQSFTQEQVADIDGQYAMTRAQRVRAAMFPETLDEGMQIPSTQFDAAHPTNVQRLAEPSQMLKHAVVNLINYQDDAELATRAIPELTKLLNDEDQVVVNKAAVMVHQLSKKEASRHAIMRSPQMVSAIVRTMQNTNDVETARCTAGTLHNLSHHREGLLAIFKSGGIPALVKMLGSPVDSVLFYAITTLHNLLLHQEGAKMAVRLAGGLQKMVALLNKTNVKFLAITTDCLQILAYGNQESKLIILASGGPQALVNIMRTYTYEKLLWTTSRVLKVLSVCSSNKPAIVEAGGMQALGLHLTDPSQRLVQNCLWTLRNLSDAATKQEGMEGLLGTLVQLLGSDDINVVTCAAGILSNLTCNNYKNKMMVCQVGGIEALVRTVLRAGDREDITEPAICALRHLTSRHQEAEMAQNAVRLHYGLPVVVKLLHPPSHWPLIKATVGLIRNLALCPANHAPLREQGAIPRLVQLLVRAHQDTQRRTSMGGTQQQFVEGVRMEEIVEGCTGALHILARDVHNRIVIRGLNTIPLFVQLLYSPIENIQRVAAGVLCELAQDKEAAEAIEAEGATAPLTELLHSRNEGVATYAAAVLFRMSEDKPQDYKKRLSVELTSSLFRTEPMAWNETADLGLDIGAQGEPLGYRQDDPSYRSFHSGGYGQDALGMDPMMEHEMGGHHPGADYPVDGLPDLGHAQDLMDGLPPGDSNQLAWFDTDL

[2] = molecular target: T2, beta-catenin/TCF4 engagement (Homo sapiens, UniProt P35222); experiment: Nano-BRET target engagement assay (B-cat-Halo & TCF4-Luc in HEK293 cells); assay type: cell-based; details: read-out: NanoBRET Abs IC50
T2 construct: expressed in transfected cells; host or cells: HEK293
T2 sequence (P35222 1-781): T1 sequence (P35222 1-781)

Row | Compound | IC50 [1] [nM] | IC50 ([2]; absolute IC50) [nM] | IC50 [2] [nM]
1 | CC(=O)N1CCC[C@]12CC=CCCCC1(CCCC=CCCCOC(=O)N3CC[C@@](C(=O)N[C@@H](Cc4ccccc4)C(=O)N[C@@H](Cc4csc5ccccc45)C(=O)N[C@@H](CO)C(N)=O)(C3)NC(=O)[C@H]([C@@H](C)O)NC(=O)[C@H](Cc3cccc(C(F)(F)F)c3)NC(=O)[C@H](C)NC(=O)[C@H](C)NC(=O)[C@H]([C@@H](C)O)NC(=O)[C@H](CC(=O)O)NC1=O)NC(=O)[C@H](CC(C)(C)C)NC(=O)[C@H](CC(=O)O)NC2=O (stereo partly drawn) [I-1268, Ac-PL3-Asp-Npg-B5-Asp-Thr-Ala-Ala-3F3MeF-Thr-PyrS2-Phe-BztA-Ser-NH2] | 198 | 28400 | 
2 | CC(=O)N1CCC[C@]12CC=CCCCC1(CCCC=CCCCOC(=O)N3CC[C@@](C(=O)N[C@@H](Cc4ccsc4)C(=O)N[C@@H](Cc4csc5ccccc45)C(=O)N[C@@H](CCC(N)=O)C(N)=O)(C3)NC(=O)[C@H](CC(N)=O)NC(=O)[C@H](Cc3ccccc3)NC(=O)[C@H](C)NC(=O)[C@H](C)NC(=O)[C@H](CN(CC(=O)O)Cc3ccccc3)NC(=O)[C@H](CC(=O)O)NC1=O)NC(=O)[C@H](CC(C)(C)C)NC(=O)[C@H](CC(=O)O)NC2=O (stereo partly drawn) [I-1635, Ac-PL3-Asp-Npg-B5-Asp-[Bn]GA-Ala-Ala-Phe-Asn-PyrS2-3Thi-BztA-Gln-NH2] | 7 | 20600 | 
3 | CC(=O)N1CCC[C@]12CC=CCCCC1(CCCC=CCCCOC(=O)N3CC[C@@](C(=O)N[C@@H](Cc4ccsc4)C(=O)N[C@@H](Cc4csc5ccccc45)C(=O)N[C@@H](CCC(N)=O)C(N)=O)(C3)NC(=O)[C@H](CC(N)=O)NC(=O)[C@H](Cc3ccccc3)NC(=O)[C@H](C)NC(=O)[C@H](C)NC(=O)[C@H](CCC(N)=O)NC(=O)[C@H](CC(N)=O)NC1=O)NC(=O)[C@H](CC(C)(C)C)NC(=O)[C@H](CC(=O)O)NC2=O (stereo partly drawn) [I-1567, Ac-PL3-Asp-Npg-B5-Asn-Gln-Ala-Ala-Phe-Asn-PyrS2-3Thi-BztA-Gln-NH2] | 182 | > 20000 | 
4 | CC(=O)N1CCC[C@]12CC=CCCCC1(CCCC=CCCCOC(=O)N3CC[C@@](C(=O)N[C@@H](Cc4ccsc4)C(=O)N[C@@H](Cc4csc5ccccc45)C(=O)N[C@@H](Cc4ccccc4)C(N)=O)(C3)NC(=O)[C@H](CC(C)C)NC(=O)[C@H](Cc3ccccc3)NC(=O)[C@H](C)NC(=O)[C@H](C)NC(=O)[C@H](CC(=O)O)NC(=O)[C@H](CC(=O)O)NC1=O)NC(=O)[C@H](CC(C)(C)C)NC(=O)[C@H](CC(=O)O)NC2=O (stereo partly drawn) [I-1496, Ac-PL3-Asp-Npg-B5-Asp-Asp-Ala-Ala-Phe-Leu-PyrS2-3Thi-BztA-Phe-NH2] | 51 | 9400 | 
5 | CC(=O)N1CCC[C@]12CC=CCCCC1(CCCC=CCCCOC(=O)N3CC[C@@](C(=O)N[C@@H](Cc4ccsc4)C(=O)N[C@@H](Cc4csc5ccccc45)C(=O)N[C@@H](CCC(N)=O)C(N)=O)(C3)NC(=O)[C@H](CC(C)C)NC(=O)[C@H](Cc3ccccc3)NC(=O)[C@H](C)NC(=O)[C@H](C)NC(=O)[C@H](CCC(=O)O)NC(=O)[C@H](CC(=O)O)NC1=O)NC(=O)[C@H](CC(C)(C)C)NC(=O)[C@H](CC(=O)O)NC2=O (stereo partly drawn) [I-1437, Ac-PL3-Asp-Npg-B5-Asp-Glu-Ala-Ala-Phe-Leu-PyrS2-3Thi-BztA-Gln-NH2] | 7 | 7100 | 
6 | CC(=O)N1CCC[C@]12CC=CCCCC1(CCCC=CCCCOC(=O)N3CC[C@@](C(=O)N[C@@H](Cc4ccsc4)C(=O)N[C@@H](Cc4csc5ccccc45)C(=O)N[C@@H](CO)C(N)=O)(C3)NC(=O)[C@H](CC(C)C)NC(=O)[C@H](Cc3ccccc3)NC(=O)[C@H](C)NC(=O)[C@H](C)NC(=O)[C@H]([C@@H](C)O)NC(=O)[C@H](CC(=O)O)NC1=O)NC(=O)[C@H](CC(C)(C)C)NC(=O)[C@H](CC(=O)O)NC2=O (stereo partly drawn) [I-1171, Ac-PL3-Asp-Npg-B5-Asp-Thr-Ala-Ala-Phe-Leu-PyrS2-3Thi-BztA-Ser-NH2] | 70 | 28800 | 
7 | C[C@@H]1NC(=O)[C@H](C)NC(=O)[C@H](CC(=O)O)NC(=O)[C@H](CC(=O)O)NC(=O)C2(CCCC=CCCCOC(=O)N3CC[C@@](C(=O)N[C@@H](Cc4ccsc4)C(=O)N[C@@H](Cc4csc5ccccc45)C(=O)N[C@@H](CCC(N)=O)C(N)=O)(C3)NC(=O)[C@H](CC(N)=O)NC(=O)[C@H](Cc3ccccc3)NC1=O)CCCC=CCCC(=O)OC1CC(C(=O)N[C@@H](CC(=O)O)C(=O)N[C@@H](CC(C)(C)C)C(=O)N2)N(S(C)(=O)=O)C1 (stereo partly drawn) [I-1574, MeSO2-HypEs5-Asp-Npg-B5-Asp-Asp-Ala-Ala-Phe-Asn-PyrS2-3Thi-BztA-Gln-NH2] | 15 | > 20000 | 

Next, values leading:

Row | IC50 [1] [nM] | IC50 ([2]; absolute IC50) [nM] | IC50 [2] [nM] | Compound
8 | 13 | 25200 |  | CC(=O)N1CCC[C@]12CC=CCCCC1(CCCC=CCCCOC(=O)N3CC[C@@](C(=O)N[C@@H](Cc4ccsc4)C(=O)N[C@@H](Cc4csc5ccccc45)C(=O)N[C@@H](CCC(=O)N4CCN(CCCN(C)C)CC4)C(N)=O)(C3)NC(=O)[C@H](CC(C)C)NC(=O)[C@H](Cc3ccccc3)NC(=O)[C@H](C)NC(=O)[C@H](C)NC(=O)[C@H](CN(CC(=O)O)CC(F)(F)F)NC(=O)[C@H](CC(=O)O)NC1=O)NC(=O)[C@H](CC(C)(C)C)NC(=O)[C@H](CC(=O)O)NC2=O (stereo partly drawn) [I-1800, Ac-PL3-Asp-Npg-B5-Asp-TfeGA-Ala-Ala-Phe-Leu-PyrS2-3Thi-BztA-[Me2NPrPip]GlnR-NH2]
9 | 19 | 9800 |  | CC(=O)N1CCC[C@]12CC=CCCCC1(CCCC=CCCCOC(=O)N3CC[C@@](C(=O)N[C@@H](Cc4ccccc4Cl)C(=O)N[C@@H](Cc4csc5ccccc45)C(=O)N[C@@H](CCC(N)=O)C(N)=O)(C3)NC(=O)[C@H](CC(C)C)NC(=O)[C@H](Cc3ccccc3)NC(=O)[C@H](C)NC(=O)[C@H](C)NC(=O)[C@H](Cc3ccccc3C(=O)O)NC(=O)[C@H](CC(=O)O)NC1=O)NC(=O)[C@H](CC(C)(C)C)NC(=O)[C@H](CC(=O)O)NC2=O (stereo partly drawn) [I-1658, Ac-PL3-Asp-Npg-B5-Asp-2COOHF-Ala-Ala-Phe-Leu-PyrS2-2C1F-BztA-Gln-NH2]
10 | 56 | 15100 |  | CC(=O)N1CCC[C@]12CC=CCCCC1(CCCC=CCCCOC(=O)N3CC[C@@](C(=O)N[C@@H](Cc4ccccc4C(F)(F)F)C(=O)N[C@H](C(=O)N[C@@H](C)C(N)=O)[C@H](C)c4csc5ccccc45)(C3)NC(=O)[C@H](CC(C)C)NC(=O)[C@H](Cc3ccccc3)NC(=O)[C@H](C)NC(=O)[C@H](CCC(N)=O)NC(=O)[C@H](Cc3cccc(C(=O)O)c3)NC(=O)[C@H](CC(=O)O)NC1=O)NC(=O)[C@H](CC(C)(C)C)NC(=O)[C@H](CC(=O)O)NC2=O (stereo partly drawn) [I-2459, Ac-PL3-Asp-Npg-B5-Asp-3COOHF-Gln-Ala-Phe-Leu-PyrS2-2F3MeF-RbMeBztA-Ala-NH2]
11 | 29 |  | > 20000 | CC(=O)N1CCC[C@]12CC=CCCCC1(CCCC=CCCCOC(=O)N3CC[C@@](C(=O)N[C@@H](Cc4ccsc4)C(=O)N[C@@H](Cc4csc5ccccc45)C(=O)N[C@@H](CCC(N)=O)C(N)=O)(C3)NC(=O)[C@H](CC(N)=O)NC(=O)[C@H](Cc3cccc(C(=O)O)c3)NC(=O)[C@H](C)NC(=O)[C@H](C)NC(=O)[C@H](CCc3ccc(O)cc3)NC(=O)[C@H](CC(=O)O)NC1=O)NC(=O)[C@H](CC(C)(C)C)NC(=O)[C@H](CC(=O)O)NC2=O (stereo partly drawn) [I-2115, Ac-PL3-Asp-Npg-B5-Asp-hTyr-Ala-Ala-3COOHF-Asn-PyrS2-3Thi-BztA-Gln-NH2]
12 | 461 | 8600 |  | CC(=O)N1CCC[C@]12CC=CCCCC1(CCCC=CCCCOC(=O)N3CC[C@@](C(=O)N[C@@H](Cc4ccccc4C(F)(F)F)C(=O)N[C@@H](Cc4csc5ccccc45)C(=O)N[C@@H](CCC(N)=O)C(=O)N[C@@H](CC(C)C)C(=O)N[C@@H](Cc4ccc(O)cc4)C(N)=O)(C3)NC(=O)[C@H](CC(C)C)NC(=O)[C@H](Cc3ccccc3)NC(=O)[C@H](C)NC(=O)[C@H](C)NC(=O)[C@H](Cc3cccc(C(=O)O)c3)NC(=O)[C@H](CC(=O)O)NC1=O)NC(=O)[C@H](CC(C)(C)C)NC(=O)[C@H](CC(=O)O)NC2=O (stereo partly drawn) [I-2392, Ac-PL3-Asp-Npg-B5-Asp-3COOHF-Ala-Ala-Phe-Leu-PyrS2-2F3MeF-BztA-Gln-Leu-Tyr-NH2]
13 | 16 |  | 14100 | CC(=O)N1CCC[C@]12CC=CCCCC1(CCCC=CCCCOC(=O)N3CC[C@@](C(=O)N[C@@H](Cc4ccsc4)C(=O)N[C@@H](Cc4csc5ccccc45)C(=O)N[C@@H](CCC(N)=O)C(N)=O)(C3)NC(=O)[C@H](CC(C)C)NC(=O)[C@H](Cc3ccccc3)NC(=O)[C@H](C)NC(=O)[C@H](C)NC(=O)[C@H](CCn3cc(CCC(=O)O)nn3)NC(=O)[C@H](CC(=O)O)NC1=O)NC(=O)[C@H](CC(C)(C)C)NC(=O)[C@H](CC(=O)O)NC2=O (stereo partly drawn) [I-2076, Ac-PL3-Asp-Npg-B5-Asp-[CH2CH2CO2H]TriAzDab-Ala-Ala-Phe-Leu-PyrS2-3Thi-BztA-Gln-NH2]
